pIC50: −log10 of the molar value. Values after ≈ are worked out from the molar mass of the structure shown.
What was measured:
[1] = test system: macrophage infiltration into 4T1 tumors; test: Immunofluorescence of macrophages in 4T1 tumors (F4/80, Arg1); type: in vivo, mouse
Procedure: Inhibition of PD-L1 and CD80/CD86 is directly achieved through the immune checkpoint blockade of their receptors using anti-CTLA-4 and anti-PD-1 antibodies.[69],[70]
Primary tumor tissues were fixed using 4% paraformaldehyde and subsequently dehydrated in sucrose solutions ranging from 10 to 30% for approximately 24 h each. The tissues were then embedded in base molds (Fisherbrand—#22363553) containing an optimal cutting temperature (OCT) compound (Fisher Healthcare—#4585). The tissue blocks were placed immediately on dry ice until the OCT compound solidified, and then they were stored at −80 °C. Prior to IF staining, sections of 5–10 μm were obtained using a Leica CM3050 S cryostat and SuperFrost Plus slides (Fisherbrand—#1255015). The tumor sections were then incubated with blocking buffer [phosphate-buffered saline containing 2% bovine serum albumin, 0.3% Triton X-100, 1% FBS, and 10% goat serum] for 1 h at RT. To detect macrophages in the TME, the sections were incubated with a pan-macrophage rat monoclonal antibody F4/80 (Abcam—#6640) diluted in blocking buffer overnight at 4 °C. Sixteen hours later, tissues were washed 3 times with 100 mM Tris–HCl and then incubated with a secondary goat antirat antibody (Invitrogen—#A11081) for 1 h at RT. […] Subsequently, 4′,6-diamidino-2-phenylindole (DAPI; Invitrogen—#D3571) was used to counterstain the nuclei for 5 min at RT. Finally, the slides were mounted using Fluoromount-G medium (Invitrogen—#00495802) and coverslips (Fisher Scientific—#12545E) and imaged with a Zeiss LSM 710 confocal microscope with ×20 objective. Quantification was carried out by QuPath software (version 0.3.2). F4/80+ macrophages and F4/80+ Arg1+ M2 macrophages were classified based on their fluorescence signal.

HDAC7 = target: T1, HDAC7 (Homo sapiens, UniProt Q8WUI4); test: Biochemical assay for HDAC inhibition, HDAC7; settings: read-out: IC50 HDAC7; Table 1, purified enzyme; unit inferred
T1 sequence (Q8WUI4 1-952): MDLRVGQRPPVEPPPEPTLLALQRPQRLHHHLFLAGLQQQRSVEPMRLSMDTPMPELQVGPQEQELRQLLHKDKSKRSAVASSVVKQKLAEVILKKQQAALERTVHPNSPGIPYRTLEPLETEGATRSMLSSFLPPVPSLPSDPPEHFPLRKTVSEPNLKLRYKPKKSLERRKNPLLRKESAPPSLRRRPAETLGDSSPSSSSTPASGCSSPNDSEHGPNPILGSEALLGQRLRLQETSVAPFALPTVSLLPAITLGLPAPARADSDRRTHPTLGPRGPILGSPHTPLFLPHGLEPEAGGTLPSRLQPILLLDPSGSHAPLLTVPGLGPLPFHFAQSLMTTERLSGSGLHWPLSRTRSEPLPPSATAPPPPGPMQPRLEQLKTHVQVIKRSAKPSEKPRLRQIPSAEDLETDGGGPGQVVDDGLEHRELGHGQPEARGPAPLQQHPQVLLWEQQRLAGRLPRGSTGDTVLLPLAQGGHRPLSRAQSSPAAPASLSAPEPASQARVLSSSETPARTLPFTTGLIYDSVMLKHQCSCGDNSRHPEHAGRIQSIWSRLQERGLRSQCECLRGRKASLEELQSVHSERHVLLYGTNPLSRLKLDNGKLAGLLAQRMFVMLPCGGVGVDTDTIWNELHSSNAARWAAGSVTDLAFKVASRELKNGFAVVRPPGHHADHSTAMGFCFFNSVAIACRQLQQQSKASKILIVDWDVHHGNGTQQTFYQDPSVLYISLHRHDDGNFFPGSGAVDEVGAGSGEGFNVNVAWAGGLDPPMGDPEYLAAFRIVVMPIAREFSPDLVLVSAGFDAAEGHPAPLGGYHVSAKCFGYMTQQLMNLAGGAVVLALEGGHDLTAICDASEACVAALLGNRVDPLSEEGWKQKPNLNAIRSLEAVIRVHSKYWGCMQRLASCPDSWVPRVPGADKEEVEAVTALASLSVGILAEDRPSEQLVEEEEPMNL

[2] = test system: hyperacetylation of tubulin, H3K9 and H3K27; test: Western blot of tubulin and histone H3 hyperacetylation in B16-F10 cells; type: cell-based, mouse; settings: SAHA 100 nM
Source text: B16-F10 cells are responsive to 1,25D analogues[45] and HDACi[46],[47] and are therefore widely used in preclinical studies of melanoma solid tumor growth and metastases.[48] Although curable when treated early, melanoma is fatal when invasive. The American Cancer Society projected 97,610 new invasive melanoma cases in the US in 2023 and 7990 deaths. Current treatment options include chemotherapy, surgery, immunotherapy, or single agents targeting mutated genes such as B-RAF or C-KIT.[49]
After 6 h treatments, 4T1, 4T07, or B16-F10 cells were solubilized in lysis buffer (20 mM Tris, pH 8, 150 mM NaCl, 1% Triton X-100, 3.5 mM SDS, and 13 mM deoxycholic acid), and proteins were separated on a 4–15% Tris/glycine/SDS gel (Bio-Rad). Then, the proteins were transferred to a nitrocellulose membrane, followed by blocking in 5% skim milk in Tris-buffered saline (TBS, 1×) solution. […] Finally, signals were detected using Clarity ECL substrates (Bio-Rad) and a ChemiDoc Imaging System. Changes in protein levels were quantified relative to control using Image Lab software (version 6.0.1) after normalization to GAPDH. […]
Figure S2. […] Quantification of the analyses of hyperacetylation in B16-F10 cells of tubulin, H3K9 and H3K27. […]

Solubility = type: physicochemical

CCC(CC)(c1ccc(C(=O)NCCCCC(=O)NO)cc1)c1ccc(OCC(O)C(C)(C)C)c(C)n1 (stereo not shown) [ZG-126, 4-(3-(5-(2-Hydroxy-3,3-dimethylbutoxy)-6-methylpyridin-2-yl)pentan-3-yl)-N-(5-(hydroxyamino)-5-oxopentyl)benzamide]
reduction of the proportion of M2-polarized immunosuppressive macrophages ([1]; 4T1 tumors): 2 fold
total macrophage infiltration into 4T1 tumors (F4/80 staining) ([1]; Figure 8B): significantly reduced
percentage of anti-inflammatory M2 macrophages (Arg1 staining) ([1]; Figure 8C-E): most efficacious at reducing the percentage of anti-inflammatory M2 macrophages
reduction of total macrophage infiltration ([1]; TNBC (4T1) tumors): 2 fold
pIC50 (HDAC7): 4.26
tubulin acetylation and histone hyperacetylation [2]: comparable to or greater than that induced by a saturating concentration of SAHA
solubility (Solubility): 9.19 µg/mL (≈ 17.9 µM)

Source: paper PMC11249012 (Journal of Medicinal Chemistry, 2024)
